Laboratory results as given in US11739124B2, “Acetyl-CoA carbosylase2 antisense oligonucleotides” (OLIPASS CORPORATION, priority 2018, dated 2023).

Columns and labels:
[1] = system: 10-mer complementary DNA; assay: Binding affinity for complementary DNA by Tm (UV/Vis); details: aqueous buffer pH 7.16, 10 mM sodium phosphate, 100 mM NaCl; for Tm Value, 10-mer DNA against C-Terminal: duplex of PNA and 10-mer complementary DNA targeting the C-terminal of PNA; for Tm Value, 10-mer DNA against N-Terminal: duplex of PNA and 10-mer complementary DNA targeting the N-terminal of PNA
Experimental: The PNA derivatives of Formula I were evaluated for their binding affinity for 10-mer DNAs complementarily targeting either the N-terminal or C-terminal. The binding affinity was assessed by Tm value for the duplex between PNA and 10-mer complementary DNA. The duplex between PNA derivatives and fully complementary DNAs show Tm values too high to be reliably determined in aqueous buffer solution, since the buffer solution tends to boil during the Tm measurement. Tm values for full length PNAs can be predicted and compared based on the Tm value for the duplex between PNA and 10-mer complementary DNA.
Tm values were determined on a UV/Vis spectrometer as follows. A mixed solution of […] PNA oligomer and 4 μM complementary 10-mer DNA in 4 mL aqueous buffer (pH 7.16, 10 mM sodium phosphate, 100 mM NaCl) in 15 mL polypropylene falcon tube was incubated at 90° C. for a few minute and slowly cooled down to ambient temperature. Then the solution was transferred into a 3 mL quartz UV cuvette equipped with an air-tight cap, and the cuvette was mounted on an Agilent 8453 UV/Visible spectrophotometer. The absorbance changes at 260 nm were recorded with increasing the temperature of the cuvette by either 0.5 or 1° C. per minute. From the absorbance vs temperature curve, the temperature showing the largest increase rate in absorbance was read out as the Tm between PNA and 10-mer DNA. The DNAs for Tm measurement were purchased from Bioneer (www.bioneer.com, Dajeon, Republic of Korea) and used without further purification.

[2] = system: human ACC2 mRNA; assay: Inhibition of ACC2 mRNA formation in C2C12 (Real-Time qPCR); type: cell-based, mouse; details: C2C12 cells, 24 hours; for reduction of ACC2 mRNA compared to control: standardized by GAPDH; for amount of ACC2 mRNA: 100 zM to 1 fM, concentration-dependently
Experimental: “ASO 1” was evaluated by Real-Time qPCR for its ability to down-regulate the ACC2 mRNA formation in C2C12 as described below.
[Cell Culture & ASO Treatment] C2C12 cells (Cat. No. CRL-1772, ATCC) were maintained in Dulbecco Modified Eagle Medium (DMEM, Cat. No. 12-604F, Lonza) supplemented with 10% Fetal Bovine Serum (Cat. No. 10099-41, GIBCO) and 1% streptomycin/penicillin (Cat. No. 15140-122, GIBCO), which was grown at 37° C. and under 5% CO2 condition. C2C12 cells (2×10^5) stabilized for 24 hours in 60 mm culture dish were incubated for 24 hours with “ASO 1” at 0 (negative control) and 100 zM to 1 fM.
[RNA Extraction & cDNA Synthesis] Total RNA was extracted using RNeasy Mini kit (Qiagen, Cat. No. 714106) according to the manufacturer's instructions from “ASO 1” treated cells and cDNA was prepared from 400 ng of RNA by use of PrimeScript™ 1st strand cDNA Synthesis Kit (Takara, Cat. No. 6110A). To a mixture of 400 ng of RNA, 1 microliter of random hexamer, and 1 microliter of dNTP (10 mM) in PCR tube was added DEPC-treated water to a total volume of 10 microliter, which was reacted at 65° C. for 5 minutes. cDNA was synthesized by adding 10 microliter of PrimeScript RTase to the reaction mixture and reacting at 30° C. for 10 minutes and at 42° C. for 60 minutes, successively.
[Quantitative Real-Time PCR] In order to evaluate the expression level of […] ACC2 mRNA real-time qPCR was performed with synthesized cDNA by use of Tagman probe. The mixture of cDNA, Taqman probe (Thermo, Mm01204651), IQ supermix (BioRad, Cat. No. 170-8862), and nuclease free water in PCR tube was under reaction by use of CFX96 Touch Real-Time system (BioRad) according to the cycle conditions specified as follows: at 95° C. for 3 min (primary denaturation) followed by 50 cycles of 10 sec at 95° C. (denaturation) and 30 sec at 60° C. (annealing and polymerization). Fluorescence intensity was measured at the end of every cycle and the result of PCR was evaluated by the melting curve. After the threshold cycle (Ct) of each gene was standardized by that of GAPDH, the change of Ct was compared and analyzed.
“ASO 6” was evaluated by Real-Time qPCR for its ability to down-regulate the ACC2 mRNA formation in C2C12 as described below.
[Cell Culture & ASO Treatment] C2C12 cells (Cat. No. CRL-1772, ATCC) were maintained in Dulbecco Modified Eagle Medium (DMEM, Cat. No. 12-604F, Lonza) supplemented with 10% Fetal Bovine Serum (Cat. No. 10099-41, GIBCO) and 1% streptomycin/penicillin (Cat. No. 15140-122, GIBCO), which was grown at 37° C. and under 5% CO2 condition. C2C12 cells (2×10^5) stabilized for 24 hours in 60 mm culture dish were incubated for 24 hours with “ASO 6” at 0 (negative control) and 100 zM to 1 fM.
[RNA Extraction & cDNA Synthesis] Total RNA was extracted using RNeasy Mini kit (Qiagen, Cat. No. 714106) according to the manufacturer's instructions from “ASO 6” treated cells and cDNA was prepared from 400 ng of RNA by use of PrimeScript™ 1st strand cDNA Synthesis Kit (Takara, Cat. No. 6110A). To a mixture of 400 ng of RNA, 1 microliter of random hexamer, and 1 microliter of dNTP (10 mM) in PCR tube was added DEPC-treated water to a total volume of 10 microliter, which was reacted at 65° C. for 5 minutes. cDNA was synthesized by adding 10 microliter of PrimeScript RTase to the reaction mixture and reacting at 30° C. for 10 minutes and at 42° C. for 60 minutes, successively.
“ASO 5” was evaluated by the same method as described below.
[Cell Culture & ASO Treatment] C2C12 cells (Cat. No. CRL-1772, ATCC) were maintained in Dulbecco Modified Eagle Medium (DMEM, Cat. No. 12-604F, Lonza) supplemented with 10% Fetal Bovine Serum (Cat. No. 10099-41, GIBCO) and 1% streptomycin/penicillin (Cat. No. 15140-122, GIBCO), which was grown at 37° C. and under 5% CO2 condition. C2C12 cells (2×10^5) stabilized for 24 hours in 60 mm culture dish were incubated for 24 hours with “ASO 5” at 0 (negative control) and 100 zM to 1 fM.
[RNA Extraction & cDNA Synthesis] […]

[3] = system: ACC2 exon 12; assay: Exon skipping of ACC2 mRNA in C2C12 (nested RT-PCR, electrophoresis, Sanger sequencing); type: cell-based; details: C2C12 cells, 5 hours, 0.1 aM to 1 fM
Experimental: “ASO 1” was evaluated for its ability to induce the skipping of ACC2 “exon 12” in C2C12 cells as described below.
[Cell Culture & ASO Treatment] C2C12 cells (2×10^5) (Cat. No. CRL-1772, ATCC) were grown in 60 mm culture dish containing DMEM medium (Dulbecco Modified Eagle Medium: DMEM) (Cat. No. 12-604F, Lonza) supplemented with 10% FBS (Fetal Bovine Serum) (Cat. No. 10099-41, GIBCO) and 1% streptomycin/penicillin (Cat. No. 15140-122, GIBCO) under 5% CO2 atmosphere at 37° C. The cells were treated either with nothing (negative control) or with an aliquot of aqueous stock solution of “ASO 1” for 5 hours at 100 zM to 1 fM.
[RNA Extraction & Nested PCR] Total RNA was extracted using RNeasy Mini kit (Qiagen, Cat. No. 714106) according to the manufacturer's instructions from “ASO 1” treated cells and cDNA was prepared from 200 ng of RNA by use of SuperScript™ III One-Step RT-PCR System (Cat. No. 12574-018, Invitrogen). […]
[Identification of Exon Skipping Products Electrophoresis] […] The target bands from “ASO 1” treatment were collected and analyzed by Sanger Sequencing to evaluate exon skipping sequence.

(N→C) Fethoc-AC(1O2)T-GA(5)C-GA(5)A-A(5)TG(5)-GC(1O2)-NH2 [ASO 4]
Tm Value, 10-mer DNA against C-Terminal [1]: 82.01 °C | Tm Value, 10-mer DNA against N-Terminal [1]: 80.01 °C

(N→C) Fethoc-CTG(6)-AC(1O2)G-A(5)AA(5)-TG(6)G-C(1O2)C—NH2 [ASO 6]
reduction of ACC2 mRNA compared to control ([2]; 1 aM): 30% | reduction of ACC2 mRNA compared to control ([2]; 1 fM): 50% | amount of ACC2 mRNA [2]: reduced

(N→C) Fethoc-CTG(6)-AC(1O2)G-A(5)AA(5)-TG(6)G-NH2 [ASO 5]
reduction of ACC2 mRNA compared to control ([2]; 1 aM): 30% | reduction of ACC2 mRNA compared to control ([2]; 1 fM): 42% | amount of ACC2 mRNA [2]: reduced

(N→C) Fethoc-CTG(6)-ACG(6)-AA(5)A-TG(6)G-C(1O2)C—NH2 (CTNACNANATNGNC; PNA with modified bases, Fethoc N-cap, C-amide; PNA modified oligonucleotide; (1)..(14) PNA modified oligonucleotide, human acetyl-CoA carboxylase2 targeted artificial sequence; (1)..(1) Carbamated N-terminal; modified_base (3)..(3) n is a, g, c, or t; modified_base (6)..(6) n is a, g, c, or t; modified_base (8)..(8) n is a, g, c, or t; modified_base (11)..(11) n is a, g, c, or t; modified_base (13)..(13) n is a, g, c, or t) [ASO 1, peptide nucleic acid derivative targeting the 5′ splice site of exon 12 in the human ACC2 pre-mRNA]
Tm Value, 10-mer DNA against C-Terminal [1]: 79.60 °C | Tm Value, 10-mer DNA against N-Terminal [1]: 72.80 °C | Exon skipping (splice variant ACC2 mRNA) [3]: concentration-dependently yielded the splice variant ACC2 mRNA lacking exon 11 | reduction of ACC2 mRNA compared to control ([2]; 1 fM): 30% | amount of ACC2 mRNA [2]: reduced

(N→C) Fethoc-TA(5)C(1O2)-TGA(5)-CGA(5)-AA(5)T-G(6)GC(1O2)-C—NH2 [ASO 2]
Tm Value, 10-mer DNA against C-Terminal [1]: 82.01 °C | Tm Value, 10-mer DNA against N-Terminal [1]: 82.99 °C

(N→C) Fethoc-TA(5)C-TG(5)A-C(1O2)GA(5)-AA(5)T-G(5)G-NH2 [ASO 3]
Tm Value, 10-mer DNA against C-Terminal [1]: 78.99 °C | Tm Value, 10-mer DNA against N-Terminal [1]: 76.03 °C
